Assay results published in patent publication US9757334B2, “Surfactant-stripped micelle compositions with high cargo to surfactant ratio” (The Research Foundation for The State University of New York, priority 2014, dated 2017).

Assay: Absorbance and peak shift of concentrated solutions
Assay type: physicochemical
Details: 1000 OD/mL in 10 μm path length versus 1000 fold dilution
Method: Characterization of Nanonap Physical and Optical Properties: Size and zeta potential measurement were carried out using dynamic light scattering with a Nano ZS90 Zetasizer (Malvern Instruments). Transmission electron microscopy was performed using a JEM-2010 electron microscope to determine the morphology of an aqueous dispersion of nanonaps negatively stained with 1% uranyl acetate. Absorbance was measured by with a Lambda 35 UV/VIS spectrophotometer (Perkin Elmer) at room temperature using cuvettes with 1 cm path lengths, except for the high-concentrated spectral shifting analysis which used 10 μm path-length cuvettes.
1 Pc and 3 Nc dyes were identified that gave rise to nanonaps with peaks at 600, 707, 793 and 863 nm (FIG. 25a, b). The nanonaps generated absorption spanning the NIR spectrum while maintaining reasonably narrow full-width half-maxima (50-100 nm). Since PA imaging can resolve multiple absorption wavelengths, multi-wavelength classes of nanoparticles are desirable. The PA spectral response of nanonaps aligned with their absorption spectra (FIG. 35). The nanoparticles could be concentrated into fully soluble solutions with absorptions of greater than 1000. […] This was assessed by measuring absorption of a concentrated solution (1000 optical densities (OD)/mL) in a 10 μm path length, and then measuring a 1000 fold dilution of the same solution in a 1 cm path length. […]

CC1(C)C(/C=C/C=C/C=C/C=C2\N(CCCCS(=O)(=O)O)c3ccc4ccccc4c3C2(C)C)=[N+](CCCCS(=O)(=O)[O-])c2ccc3ccccc3c21 [indocyanine green]
absorption peak shift upon concentration: large absorption shifts
